Measurements taken from US7655654B2, “Farnesyl transferase inhibiting tricyclic quinazoline derivatives substituted with carbon-linked imidazoles or triazoles” (Janssen Pharmaceutica NV, priority 2002, dated 2010).

Experiments:
[1] = target: farnesyl protein transferase (Homo sapiens, UniProt P49354+P49356); assay: In vitro assay for inhibition of farnesyl protein transferase; type: biochemical; settings: for IC50 / Enzyme activity pIC50: negative log value of the IC50-value; for IC50: read-out: Enzyme activity pIC50 (converted); for % of inhibition at 10^−7 M / inhibition at 0.1 µM: at 10^−7 M
Procedure: Example C.1: “In Vitro Assay for Inhibition of Farnesyl Protein Transferase”:
An in vitro assay for inhibition of farnesyl transferase was performed essentially as described in WO 98/40383, pages 33-34. Herein the effects of test compounds are expressed as pIC50 (the negative log value of the IC50-value) and as % of inhibition at 10^−7 M (see Table F-2)

Row | % of inhibition at 10^−7 M [1] | IC50 [1] | inhibition at 0.1 µM [1] | melting point | Enzyme activity pIC50 [1] | Structure (SMILES)
1 | 90% | 14.1 nM | – | – | – | COc1ccc(C(O)(c2ccc3c(c2)C(c2cccc(Cl)c2)n2nnnc2N3C)c2cncn2C)cc1 (mixture of isomers) [Compound 6]
2 | – | 25.4 nM | 80% | 126 °C | – | CCOC(=O)CN1c2ccc(C(O)(c3ccc(OC)cc3)c3cncn3C)cc2C(c2cccc(Cl)c2)n2nnnc21 (mixture of isomers) [Compound 13]
3 | – | 18.6 nM | 74% | 164 °C | – | COc1ccc(C(O)(c2ccc3c(c2)C(c2cccc(Cl)c2)n2nnnc2N3Cc2ccc(C#N)cc2)c2cncn2C)cc1 (mixture of isomers) [Compound 14]
4 | – | 16.6 nM | 88% | 144 °C | – | COc1ccc(C(O)(c2ccc3c(c2)C(c2cccc(Cl)c2)n2nnnc2N3C)c2cncn2C)cc1 (mixture of isomers) [Compound 15]
5 | – | > 100 nM | 45% | 226 °C | – | Cn1cnnc1C(O)(c1ccc(I)cc1)c1ccc2c(c1)C(c1cccc(Cl)c1)n1nnnc1N2 (mixture of isomers) [Compound 16]
6 | – | 29.9 nM | 76% | 225 °C | – | Cn1cncc1C(O)(c1ccc(I)cc1)c1ccc2c(c1)C(c1cccc(Cl)c1)n1nnnc1N2 (mixture of isomers) [Compound 18]
7 | – | 9.71 nM | 92% | – | – | CN1c2ccc(C(O)(c3ccc(Cl)cc3)c3cncn3C)cc2C(c2cccc(Cl)c2)n2nnnc21 (mixture of isomers) [Compound 19]
8 | – | 9.2 nM | 91% | 108 °C | – | COc1ccc(C(c2ccc3c(c2)C(c2cccc(Cl)c2)n2nnnc2N3C)c2cncn2C)cc1 (mixture of isomers) [Compound 20]
9 | – | 19.1 nM | 78% | 228 °C | – | CN1c2ccc(C(O)(c3ccc(I)cc3)c3cncn3C)cc2C(c2cccc(Cl)c2)n2nnnc21 (mixture of isomers) [Compound 21]
10 | – | < 100 nM | 57% | 181 °C | – | CN1c2ccc(C(O)(c3ccc(I)cc3)c3nncn3C)cc2C(c2cccc(Cl)c2)n2nnnc21 (mixture of isomers) [Compound 22]
11 | – | < 100 nM | 66% | 165 °C | – | CC(C)OC(=O)c1ccc(C(O)(c2ccc3c(c2)C(c2cccc(Cl)c2)n2nnnc2N3C)c2cncn2C)cc1 (mixture of isomers) [Compound 25]
12 | 74% | 34.6 nM | – | – | – | Cc1ccc(C(N)(c2ccc3c(c2)C(c2cccc(Cl)c2)n2nnnc2N3)c2cncn2C)cc1 (single isomer, unassigned) [Compound 4, 9-(3-chlorophenyl)-4,9-dihydro-α-(1-methyl-1H-imidazol-5-yl)-α-(4-methylphenyl)-tetrazolo[5,1-b]quinazoline-7-methanamine]
13 | 99% | < 1 nM | – | – | – | Cc1ccc(C(N)(c2ccc3c(c2)C(c2cccc(Cl)c2)n2nnnc2N3)c2cncn2C)cc1 (single isomer, unassigned) [Compound 5, 9-(3-chlorophenyl)-4,9-dihydro-α-(1-methyl-1H-imidazol-5-yl)-α-(4-methylphenyl)-tetrazolo[5,1-b]quinazoline-7-methanamine]
14 | 64% | < 100 nM | – | > 260 °C | – | COc1ccc(C(O)(c2ccc3c(c2)C(c2cccc(Cl)c2)n2nnnc2N3)c2cncn2C)cc1 (single isomer, unassigned) [Compound 7]
15 | 88% | 12.4 nM | – | 176 °C | – | COc1ccc(C(O)(c2ccc3c(c2)C(c2cccc(Cl)c2)n2nnnc2N3)c2cncn2C)cc1 (single isomer, unassigned) [Compound 8]
16 | – | > 100 nM | 46% | 242 °C | – | Cn1cncc1[C@@](N)(c1ccc(Cl)cc1)c1ccc2c(c1)C(c1cccc(Cl)c1)n1nnnc1N2 (single isomer, unassigned) [Compound 11]
17 | 42% | – | – | 162 °C | <7 | Cn1cncc1[C@@](N)(c1ccc(Cl)cc1)c1ccc2c(c1)C(c1cccc(Cl)c1)n1nnnc1N2 (single isomer, unassigned) [Compound 12]
18 | – | 25.4 nM | 81% | > 260 °C | – | Cn1cncc1C(O)(c1ccc(Cl)cc1)c1ccc2c(c1)C(c1cccc(Cl)c1)n1nnnc1N2 (stereo not drawn) [Compound 1, 9-(3-chlorophenyl)-α-(4-chlorophenyl)4,9-dihydro-α-(1-methyl-1H-imidazol-5-yl)-tetrazolo[5,1-b]quinazoline-7-methanol]
19 | – | 1.77 nM | 96% | 180 °C | – | Cn1cncc1C(O)(c1ccc(F)cc1)c1ccc2c(c1)C(c1cccc(Cl)c1)n1nnnc1N2 (stereo not drawn) [Compound 2, 9-(3-chlorophenyl)-α-(4-fluorophenyl)4,9-dihydro-α-(1-methyl-1H-imidazol-5-yl)-tetrazolo[5,1-b]quinazoline-7-methanol]
20 | – | 23.3 nM | 80% | – | – | COc1ccc(C(O)(c2ccc3c(c2)C(c2cccc(Cl)c2)n2nnnc2N3)c2cncn2C)cc1 (stereo not drawn) [Compound 3, 9-(3-chlorophenyl)-4,9-dihydro-α-(4-methoxyphenyl)-α-(1-methyl-1H-imidazol-5-yl)-tetrazolo[5,1-]quinazoline-7-methanol]
21 | – | 20.6 nM | 82% | 121 °C | – | COc1ccc(C(O)(c2ccc3c(c2)C(c2cccc(Cl)c2)n2nnnc2N3CC2CC2)c2cncn2C)cc1 (stereo not drawn) [Compound 9]
22 | – | > 100 nM | 43% | – | – | CCOC(c1ccc(Cl)cc1)(c1ccc2c(c1)C(c1cccc(Cl)c1)n1nnnc1N2)c1cncn1C (stereo not drawn) [Compound 10]
23 | 42% | – | – | 195 °C | <7 | Cn1cnnc1C(O)(c1ccc(I)cc1)c1ccc2c(c1)C(c1cccc(Cl)c1)n1nnnc1N2 (stereo not drawn) [Compound 17]
24 | – | 2.54 nM | 98% | > 250 °C | – | Cn1cncc1[C@](N)(c1ccc(Cl)cc1)c1ccc2c(c1)C(c1cccc(Cl)c1)n1nnnc1N2 (stereo partly drawn) [Compound 23]
25 | 88% | 11.7 nM | – | 183 °C | – | Cn1cncc1[C@](N)(c1ccc(Cl)cc1)c1ccc2c(c1)C(c1cccc(Cl)c1)n1nnnc1N2 (stereo partly drawn) [Compound 24]
